Measured values taken from US9220705B2, “Method of treating colorectal cancer” (priority 2013, dated 2015).
Values joined by “and” are separate entries in the source; they are usually repeats but may differ in a detail not shown here. Equal values may be shown once. Marks after values point to notes of the source that are not given here.

Key:
A375 = test: MTT cytotoxicity assay, 72 h; type: cell-based, human; conditions: A375, skin
Excerpt: (§1) Human breast (MCF-7) and colon (HCT-15, DDL1, SW480 and CaCo-2) carcinoma cell lines along with melanoma (A375) were obtained from the American Type Culture Collection (ATCC, Rockville, Md.). A431 are human cervical carcinoma cells kindly provided by Prof. F. Zunino (Molecular Pharmacology Unit, Experimental Oncology and Molecular Medicine, Istituto Nazionale dei Tumori, Milan, Italy). […] G. Marverti (Dept. of Biomedical Science, University of Modena, Italy). LoVo human colon-carcinoma cell line and its multidrug-resistant sublime (LoVo MDR) were kindly provided by Prof F. Maj one (Department of Biology of Padova University, Italy). […] Cell lines were maintained in the logarithmic phase at 37° C. in a 5% carbon dioxide atmosphere using the following culture media containing 10% fetal calf serum (Euroclone, Milan, Italy), antibiotics (50 units mL^−1 penicillin and 50 μg mL^−1 streptomycin), and 2 mM L-glutamine in: i) RPMI-1640 medium (Euroclone) for MCF-7, HCT-15, A431, DLD 1, 2008, and C13* cells; ii) F-12 HAM'S (Sigma Chemical Co.) for LoVo, LoVo MDR, and LoVo-OXP cells; iii) DMEM for A375 and SW 480 cells; and iv) MEM for CaCo-2 cells.
(§2) The growth inhibitory effect towards tumor cell lines was evaluated by means of the MTT (3-(4,5-dimethylthiazol-2-yl)-2,5-diphenyltetrazolium bromide) assay (Alley, M. C., et al., Cancer Res. 1988, 48, 589-601).
(§3) Briefly, depending upon the growth characteristics of the cell line, 3-8×10^3 cells well^−1, were seeded in 96-well microplates in growth medium (100 μL) and then incubated at 37° C. in a 5% carbon dioxide atmosphere. After 24 h, the medium was removed and replaced with a fresh one containing the compound to be studied, at the appropriate concentration, dissolved in 0.9% sodium chloride solution just before use. Triplicate cultures were established for each treatment. After 72 h, each well was treated with […] of a 5 mg mL^−1 MTT saline solution and, after 5 h of incubation, 100 μL of a sodium dodecylsulfate (SDS) solution in 0.01 M HCl were added. After an overnight incubation, the inhibition of cell growth induced by the tested complexes was determined by measuring the absorbance of each well at 570 nm using a BioRad 680 microplate reader. Mean absorbance for each drug dose was expressed as percentage of the control and plotted vs. drug concentration. Dose-response curves were fitted and IC50 values were calculated with four parameter logistic model (4PL).
(§4) Compound 1 was prepared for the first time almost twenty years ago however, until now, it had been tested (both in vitro and in vivo) only in a limited number of tumor cell lines (Hoeschele, J. D., et al., J. Med. Chem. 1994, 37, 2630-2636 and Shamsuddin, S., et al., J. Inorg. Biochem. 1996, 61, 291-301). The Pt(II) and Pt(IV) complexes containing isomeric forms of diaminocyclohexane, [PtCl2(cis-1,4-DACHA](1), [PtCl2(1R,2R-DACH)] (2), [Pt(OXA)(cis-1,4-DACH)] (3), cis,trans,cis-[Pt^IVCl2(OH)2(cis-1,4-DACH)] (4), cis,trans,cis-[Pt^IVCl2(DCA)2(cis-1,4-DACH)] (5), [Pt(CBDCA)(cis-1,4-DACH)] (6), cis,trans,cis-[Pt^IV(OXA)(OH)2(cis-1,4-DACH)] (7), and cis,trans,cis-[Pt^IV(OXA)(DCA)2(cis-1,4-DACH)] (8) were evaluated for their cytotoxic activity towards a panel of human tumor cell lines including cervical (A431), breast (MCF-7), cancers along with a melanoma (A375) and 4 different colon cancer cell lines corresponding to different stages of the disease progression (HCT-15, SW480, CaCo-2, DLD-1). The cytotoxicity was evaluated by means of the MTT test for 72 h treatment with increasing concentrations of the tested compounds.

A431 = test: MTT cytotoxicity assay, 72 h; type: cell-based, human; conditions: A431, cervix
Excerpt: as §1, §2, §3, §4

DLD-1 = test: MTT cytotoxicity assay, 72 h; type: cell-based, human; conditions: DLD-1, colon
Excerpt: as §1, §2, §3, §4

HCT-15 = test: MTT cytotoxicity assay, 72 h; type: cell-based, human; conditions: HCT-15, colon
Excerpt: as §1, §2, §3, §4

MCF-7 = test: MTT cytotoxicity assay, 72 h; type: cell-based, human; conditions: MCF-7, breast
Excerpt: as §1, §2, §3, §4

SW480 = test: MTT cytotoxicity assay, 72 h; type: cell-based, human; conditions: SW480, colon
Excerpt: as §1, §2, §3, §4

LoVo colon cancer cells = test: MTT cytotoxicity assay, cross-resistance profile; type: cell-based, human; conditions: 72 h
Excerpt: Human breast (MCF-7) and colon (HCT-15, DDL1, SW480 and CaCo-2) carcinoma cell lines along with melanoma (A375) were obtained from the American Type Culture Collection (ATCC, Rockville, Md.). A431 are human cervical carcinoma cells kindly provided by Prof. F. Zunino (Molecular Pharmacology Unit, Experimental Oncology and Molecular Medicine, Istituto Nazionale dei Tumori, Milan, Italy). […] G. Marverti (Dept. of Biomedical Science, University of Modena, Italy). LoVo human colon-carcinoma cell line and its multidrug-resistant sublime (LoVo MDR) were kindly provided by Prof F. Maj one (Department of Biology of Padova University, Italy).
as §2, §3
(§5) A LoVo cell line retaining a multidrug resistance phenotype was also considered (LoVo MDR). Cross-resistance profiles were evaluated by means of the resistance factor (RF), which is defined as the ratio between the IC50 value for the resistant cells and that arising from the sensitive cells (Table 2).

[1] = system: 2008 ovarian cancer cells; test: MTT cytotoxicity assay, cross-resistance profile; type: cell-based, human; conditions: 72 h
Excerpt: as §1, §2, §3, §5

[2] = system: C13* cisplatin resistant ovarian cancer cells; test: MTT cytotoxicity assay, cross-resistance profile; type: cell-based, human; conditions: for IC50: C13*, 72 h, MTT; for R.F. (resistance factor): IC50 C13* / IC50 2008, cross-resistance with cisplatin
Excerpt: as §1, §2, §3, §5

[3] = system: LoVo-OXP oxaliplatin resistant colon cancer cells; test: MTT cytotoxicity assay, cross-resistance profile; type: cell-based, human; conditions: for R.F. (resistance factor): IC50 LoVo-OXP / IC50 LoVo, cross-resistance with oxaliplatin; for IC50: LoVo-OXP, 72 h, MTT
Excerpt: as §1, §2, §3, §5

[4] = system: LoVo MDR multidrug resistant colon carcinoma subline; test: MTT cytotoxicity assay, cross-resistance profile; type: cell-based, human; conditions: for R.F. (resistance factor): IC50 LoVo-MDR / IC50 LoVo; for IC50: LoVo-MDR, 72 h, MTT
Excerpt: as §1, §2, §3, §5
In Table 2 are also reported the results obtained in a multidrug resistant (MDR) colon carcinoma subline, LoVo MDR, in which the resistance to doxorubicin, a drug belonging to the MDR spectrum, is associated with an overexpression of multi-specific drug transporters, such as the 170 kDa P-glycoprotein (P-gp) (Wersinger, C., et al., Amino Acids 2000, 19, 667-685). It is well known that acquired MDR, whereby cells become refractory to multiple drugs, poses most important challenge to the success of anticancer chemotherapy.

[5] = system: 2008/C13*, LoVo/LoVo-OXP, LoVo MDR; test: MTT cytotoxicity, comparison over the Table 2 cell lines; type: cell-based, human; conditions: 2008 ovarian and LoVo colon sensitive cells
Method: as §3, with “After” for “Briefly, depending upon the growth characteristics of the cell line, 3-8×10^3 cells well^−1, were seeded in 96-well microplates in growth medium (100 μL) and then incubated at 37° C. in a 5% carbon dioxide atmosphere. After”
as §5

[6] = system: Lewis lung carcinoma (LLC); test: In vivo anticancer activity toward Lewis lung carcinoma; design: species or system C57BL mice; conditions: daily dose i.p. 1.5 mg kg^−1 from day 9; day 15
Method: All studies involving animal testing were carried out in accordance with the ethical guidelines for animal research adopted by the University of Padua, acknowledging the Italian regulation and the European Directive 86/609/EEC as to animal welfare and protection and the related codes of practice. The mice were purchased from Charles River, Italy, and housed in steel cages under controlled environmental conditions (constant temperature, humidity, and 12 h dark/light cycle) and alimented with commercial standard feed and tap water ad libitum. Animals were observed daily, and body weight and food intake recorded. The Lewis lung carcinoma (LLC) cell line was purchased from ECACC, UK. The LLC cell line was maintained in D-MEM (Euroclone) supplemented with 10% heat-inactivated FBS (Euroclone), 10 mM L-glutamine, 100 U mL^−1 penicillin, and 100 μg mL^−1 streptomycin in a 5% CO2 air incubator at 37° C.
The Lewis lung carcinoma (LLC) was implanted i.m. as a 2×10^6 cell inoculum into the right hind leg of 8-week old male and female C57BL mice (24±3 g body weight). […] At day 15, animals were sacrificed, the legs were amputated at the proximal end of the femur, and the inhibition of tumor growth was determined according to the difference in weight of the tumor-bearing leg and the healthy leg of the animals expressed as % referred to the control animals. Body weight was measured every two days and was taken as a parameter for systemic toxicity.
All the values are the means±S.D. of not less than three measurements. Multiple comparisons were made by Tukey-Kramer test (**p<0.01; *p or °p<0.05).
The in vivo antitumor activity of compound 1 was evaluated in a model of solid tumor, the syngeneic murine Lewis lung carcinoma (LLC). […] For the assessment of the adverse side effects, changes in body weights of tumor-bearing mice were monitored daily (FIG. 3).

SMILES	IC50 (A375) [µM]	IC50 (A431) [µM]	IC50 (DLD-1) [µM]	IC50 (HCT-15) [µM]	IC50 (MCF-7) [µM]	IC50 (SW480) [µM]	IC50 (LoVo colon cancer cells) [µM]	IC50 [1] [µM]	IC50 [2] [µM]	R.F. (resistance factor) [2]	R.F. (resistance factor) [3]	IC50 [3] [µM]	R.F. (resistance factor) [4]	IC50 [4] [µM]	cytotoxic activity towards sensitive lines compared with reference drugs [5]	Average tumor weight (mean ± SD, g) [6]	Inhibition of tumor growth (%) [6]
O=C1[O][Pt]2([OH])([OH])([NH]C3CCC(CC3)[NH]2)[O]C1=O [Compound 7, (OC-6-33)-[ethanedioato(2)-O,O′](cis-1,4-cyclohexanediamine-N,N′)dihydroxyplatinum]	75.1 ± 6.54	59.5 ± 3.64	82.2 ± 5.54	72.1 ± 4.74	112 ± 9.52	69.4 ± 11.5	61.2 ± 5.51	59.5 ± 3.64	78.7 ± 4.6	1.3	1.1	66.9 ± 5.12	1.1	69.4 ± 4.83	less effective than oxaliplatin and cisplatin	–	–
O=C1[O][Pt]2([O]C(=O)C(Cl)Cl)([O]C(=O)C(Cl)Cl)([NH]C3CCC(CC3)[NH]2)[O]C1=O [Compound 8, (OC-6-33)-[ethanedioato(2)-O,O′](cis-1,4-cyclohexanediamine-N,N′)bisdichloroacetateplatinum]	4.99 ± 1.15	7.41 ± 2.11	8.26 ± 3.24	13.7 ± 3.81	12.6 ± 2.47	10.6 ± 2.01	9.08 ± 2.16	11.1 ± 3.28	9.12 ± 2.79	0.8	1.2	11.1 ± 3.05	1.3	11.9 ± 3.33	lower than cisplatin and oxaliplatin in ovarian sensitive cancer cells, similar than cisplatin against colon sensitive cells	–	–
N.N.[Cl][Pt][Cl] [cisplatin, cis-diamminedichloroplatinum(II), reference compound]	2.06 ± 1.01	1.96 ± 0.84	8.01 ± 2.22	15.5 ± 2.48	8.37 ± 2.96	7.67 ± 1.34	7.63 ± 1.53	2.26 ± 1.06	23.7 ± 2.42	10.5	1.7	13.1 ± 2.47	1.1	7.53 ± 0.98	–	0.199 ± 0.10** g	75% and 74.66%
